{"source": "patent US20210252047A1", "about": "“USE OF HALOGEN COMPOUNDS FOR THE TREATMENT AND PREVENTION OF TISSUE INJURY AND POST-INTENSIVE CARE SYNDROME” (Faraday Pharmaceuticals, Inc., priority 2018, published 2021)", "key": {"[1]": {"tested_on": "mice subject to bilateral hind limb ischemia (HLI)", "assay": "Hind limb ischemia (HLI) cytokine levels in muscle and plasma, Example 3", "format": "in vivo, C56Bl/6 mice", "conditions": "24 hours after reperfusion", "experimental": "A mouse model of hind limb ischemia was utilized to induce intramuscular and systemic inflammation. Male C56Bl/6 mice˜7-10 weeks old were subject to bilateral hind limb ischemia (HLI) by placing an O-ring on both hind limbs for 2.5 hours. Five minutes prior to reperfusion an intravenous bolus of sodium iodide (NaI; FDY-5301) at a concentration of 1 mg/kg was delivered. Vehicle treated animals received an i.v. bolus of saline. After i.v. delivery, at the 2.5 hour mark, the O-rings were cut off and removed to allow for tissue reperfusion. The mice were sacrificed 24 hours following reperfusion. Upon sacrifice, whole blood was removed (plasma was then separated and frozen at −80° C.), the gastronemius muscle was removed and snap frozen in liquid nitrogen and then stored at −80° C. The cytokines were evaluated on a MAGPIX® instrument (Luminex Corp) using a custom multiplex assay kit from MilliporeSigma (MCYTOMAG-70K-09, containing: INF-γ, IL-18, IL-2, IL-6, IL-10, KC, LIX, MIP-2 & TNF-α."}, "[2]": {"tested_on": "mice subjected to bilateral hind limb ischemia", "assay": "Bilateral hind-limb ischemia model of systemic inflammation, Study A (2 hours ischemia, 3 hours reperfusion)", "format": "in vivo, C57Bl/6 mice", "conditions": "after 3 hours of reperfusion", "experimental": "(§1) A bilateral hind-limb ischemia model was used to induce systemic inflammation. Male C57Bl/6 mice (7-10 weeks old) were subjected to 2 hours of bilateral hind limb ischemia followed by 3 hours of reperfusion. Ischemia was induced by application of latex o-rings above the greater trochanter using a McGivney Hemorrhoidal ligator. After 3 hours of reperfusion, the plasma was analyzed for levels of creatine kinase (CK), or other markers of organ injury: blood urea nitrogen (BUN), alanine aminotransferase (ALT), and aspartate aminotransferase (AST).\nA 1, 3, 10, or 20 mg/kg bolus of sodium iodide was administered intravenously (i.v.) by the retro orbital (r.o.) route 5 minutes prior to reperfusion of the hind limbs."}, "[3]": {"tested_on": "mice subjected to bilateral hind limb ischemia", "assay": "Hind limb ischemia survival, Study C (3 hours ischemia, i.v. bolus)", "format": "in vivo, C57Bl/6 mice", "experimental": "as §1\nThe model used to evaluate survival was similar to that previously described for Study A; however, the time of ischemia was increased to 3 hours. The time from reperfusion to death was monitored for the next 2 months.\nA 1 mg/kg bolus of sodium iodide was administered intravenously (i.v.) by the retro orbital (r.o.) route 5 minutes prior to reperfusion of the hind limbs."}, "[4]": {"tested_on": "mice subjected to hindlimb ischemia reperfusion injury", "assay": "Hindlimb ischemia reperfusion injury (2 hours ischemia, 3 hours reperfusion), Example 1", "format": "in vivo, C57BL/6 mice", "experimental": "Anesthetized adult male C57BL/6 mice were subjected to hindlimb ischemia reperfusion injury (bilateral leg tourniquets for 2 hours (ischemia) followed by 3 hours of reperfusion after tourniquet removal). To determine whether exogenous iodide could reduce damage to heart and lung tissue caused by the ischemia reperfusion injury, various doses of iodide (0 mg/kg, 1 mg/kg, 10 mg/kg or 20 mg/kg) were administered intravenously (i.v.) by the retro orbital (r.o.) to the animals 5 minutes prior to reperfusion of the hind limb.\nThe animals were then sacrificed and blood (plasma) and lung and GC muscle samples obtained. The blood (plasma) samples were assayed to determine the concentrations of creatine kinase and cardiac troponin present in each. In addition, the amount of edema present in the lung and GC muscle was determined as wet weight/dry weight."}, "[5]": {"tested_on": "mice subjected to bilateral hind limb ischemia", "assay": "Hind limb ischemia survival, Study B (2.5 hours ischemia, NaI in drinking water)", "format": "in vivo, C57Bl/6 mice", "experimental": "as §1\nThe model used to evaluate survival was similar to that previously described for Study A; however, the time of ischemia was increased to 2.5 hours. The time from reperfusion to death was monitored for the next 24 hours.\nThe drinking water of the mice was supplemented with 84 μM NaI and the mice were allowed ad libitium access (p.o.) to this water for >5 days prior to hind limb ischemia."}, "[6]": {"conditions": "1 mg/kg i.v. bolus 5 minutes prior to reperfusion, 2.5 h ischemia, p<0.05, FIG. 7"}, "[7]": {"conditions": "i.v. administration 5 minutes prior to reperfusion, FIG. 2"}}, "data": [{"compound": "[I-].[Na+]", "note": "[sodium iodide]", "values": [{"measurement": "plasma IL-6", "setting": "[1]; 1 mg/kg i.v. bolus 5 minutes prior to reperfusion, 2.5 h ischemia, FIG. 8", "value": "significant reduction"}, {"measurement": "IL-6 in muscle tissue", "setting": "[1]; [6]", "value": "significant reduction"}, {"measurement": "IL-10 in muscle tissue", "setting": "[1]; [6]", "value": "significant reduction"}, {"measurement": "KC in muscle tissue", "setting": "[1]; [6]", "value": "significant reduction"}, {"measurement": "MIP-2 in muscle tissue", "setting": "[1]; [6]", "value": "significant reduction"}, {"measurement": "inflammation, heat map of all cytokines assessed in muscle or plasma", "setting": "[1]; 1 mg/kg i.v. bolus, FIGS. 9 and 10", "value": "overall reduction"}, {"measurement": "cytokine levels in plasma", "setting": "[1]; FIG. 8", "value": "significantly reduced"}, {"measurement": "cytokine levels in muscle tissue (IL-6, IL-10, CXCL1 or KC, MIP-2)", "setting": "[1]; FIGS. 7A-7D", "value": "significantly reduced"}, {"measurement": "plasma CK levels compared to vehicle", "setting": "[2]; 1 mg/kg i.v. bolus 5 minutes prior to reperfusion, FIG. 3", "value": "significantly reduced"}, {"measurement": "plasma level of blood urea nitrogen (BUN)", "setting": "[2]; 1, 3, 10 or 20 mg/kg i.v. bolus 5 minutes prior to reperfusion, FIG. 4A", "value": "reduced"}, {"measurement": "plasma level of alanine aminotransferase (ALT)", "setting": "[2]; 1, 3, 10 or 20 mg/kg i.v. bolus 5 minutes prior to reperfusion, FIG. 4B", "value": "reduced"}, {"measurement": "plasma level of aspartate aminotransferase (AST)", "setting": "[2]; 1, 3, 10 or 20 mg/kg i.v. bolus 5 minutes prior to reperfusion, FIG. 4C", "value": "reduced"}, {"measurement": "survival compared to vehicle administration", "setting": "[3]; 1 mg/kg i.v. bolus 5 minutes prior to reperfusion", "value": "increased"}, {"measurement": "animals alive after 72 hours", "setting": "[3]; 1 mg/kg i.v. bolus 5 minutes prior to reperfusion, vehicle 0%, FIG. 6A", "value": 20, "unit": "%"}, {"measurement": "further survival of the animals alive after 72 hours (study ended at this point)", "setting": "[3]; 1 mg/kg i.v. bolus, FIG. 6B", "value": "≥ 2", "unit": "months"}, {"measurement": "plasma CK (creatine kinase) levels compared to vehicle", "setting": "[4]; 1 mg/kg, 10 mg/kg or 20 mg/kg i.v. (retro orbital) 5 minutes prior to reperfusion, 2 h ischemia, 3 h reperfusion, FIG. 1A", "value": "significantly reduced"}, {"measurement": "level of cardiac troponin", "setting": "[4]; 10 mg/kg i.v. 5 minutes prior to reperfusion, plasma, 2 h ischemia, 3 h reperfusion, FIG. 1B", "value": "significantly reduced"}, {"measurement": "muscle edema (gastrocnemius), wet weight/dry weight", "setting": "[4]; [7]", "value": "reduced"}, {"measurement": "pulmonary edema (lung), wet weight/dry weight", "setting": "[4]; [7]", "value": "reduced"}, {"measurement": "animals alive at 24 hours", "setting": "[5]; 84 μM in drinking water (p.o.) >5 days prior to ischemia, vehicle 50%", "value": 90, "unit": "%"}, {"measurement": "survival compared to vehicle", "setting": "[5]; 84 μM in drinking water ad libitum (p.o.) >5 days prior to ischemia, monitored 24 hours, FIG. 5", "value": "significantly increased"}]}]}
